Measured values reported in patent publication US20250002450A1, “CATIONIC STEROID COMPOUNDS, METHOD OF OBTAINING THEREOF, FORMULATIONS COMPRISING THEREOF AND THEIR USES” (UNIVERSIDADE DO PORTO, priority 2021, published 2025).
≈ marks a conversion by molar mass, not a printed value. Where two headings read alike, the source gives them in different places.

How the values were obtained:
[1] = tested on: Acinetobacter baumannii ATCC 19606; test: Antibacterial MIC/MBC (broth microdilution); assay type: cell-based; conditions: for MBC / MIC: Acinetobacter baumannii ATCC 19606; for antibacterial activity (in words): A. baumannii ATCC 19606
Summary of the method: (§1)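 Visible growth inhibition after 20 h at 37 degrees C defines the MIC, with compounds tested at 0.062-64 μg/mL in Mueller-Hinton broth 2 against about 5×10^5 CFU/mL. Bactericidal endpoint: 99.9% reduction of the starting inoculum on MH agar subculture.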

[2] = tested on: Pseudomonas aeruginosa ATCC 27853; test: Antibacterial MIC/MBC (broth microdilution); assay type: cell-based; conditions: for MBC / MIC: Pseudomonas aeruginosa ATCC 27853
Summary of the method: as §1

[3] = tested on: C. jejuni 4432; test: Antibacterial MIC/MBC (broth microdilution); assay type: cell-based, Campylobacter jejuni
Excerpt: (§2) Twelve reference bacterial strains and nine MDR clinically relevant bacterial strains were used in this study. Gram-negative bacteria comprised reference strains E. coli ATCC 25922, K. pneumoniae ATCC 13883, Salmonella enterica serovar Typhimurium CECT 443, P. aeruginosa ATCC 27853, A. baumannii ATCC 19606, C. jejuni ATCC 33560 (ATCC—American Type Culture Collection; CECT—Colección Espanola de Cultivos Tipo); clinical isolates E. coli SA/2, an extended-spectrum β-lactamase (ESBL)-producing strain and P. aeruginosa 33b, a pan-drug-resistant isolate; and animal isolates C. jejuni P5/4, a ciprofloxacin-resistant strain, C. jejuni 4432, C. jejuni 4433, C. jejuni 4448, and E. coli 2252, a COL-resistant strain [42]. Gram-positive strains included S. aureus ATCC 29213, E. faecalis ATCC 29212, S. pyogenes ATCC 19615, and environmental isolates methicillin-resistant S. aureus (MRSA) 66/1 [43], and VAN-resistant enterococci (VRE) E. faecalis B3/101 [44]. Gram-negative fish pathogens Yersinia ruckeri ATCC 29473, Listonella anguillarum ATCC 1924, and Tenacibaculum maritimum ATCC 43397 were also included.
(§3) Strains were kept in Trypto-Casein Soy agar (TSA—Biokar Diagnostics, Allone, Beauvais, France) slants and, before each assay, were sub-cultured in Mueller-Hinton agar (MHA—Biokar Diagnostics, Allone, Beauvais, France). Y. ruckeri ATCC 29473 and L. anguillarum ATCC 1924 were kept in Nutrient Agar (Condalab, Madrid, Spain) and T. maritimum ATCC 43397 was kept in TMM agar (Condalab, Madrid, Spain), and were sub-cultured in the respective culture media before each assay. For S. pyogenes ATCC 19615, CAMHB was supplemented with 3.75% lysed horse blood (LBH—Oxoid, Basingstoke, England), whereas for C. jejuni it was supplemented with 2.5% LHB. Colony-forming unit counts of the inoculum were conducted to determine the initial inoculum size (which should be approximately 5×10^5 CFU/mL). Sterility and growth controls were included in each assay. The 96-well U-shaped untreated polystyrene microtiter plates were incubated for 20 h at 37 degrees C. (42 degrees C. for C. jejuni, in a microaerophilic atmosphere) and the minimal inhibitory concentration (MIC) was determined as the lowest concentration of compound that prevented visible growth. The minimal bactericidal concentration (MBC) was determined by spreading 100 μL of the content of the wells with no visible growth on MH plates. The MBC was determined as the lowest concentration of compound that killed 99.9% of the initial inoculum after overnight incubation at 37 degrees C. Two independent assays were performed for reference and MDR strains.
(§4) An initial screening of the antibacterial activity of the compounds was performed by the Kirby-Bauer disk diffusion method, as recommended by the Clinical and Laboratory Standards Institute (CLSI). Briefly, sterile 6 mm blank paper disks (Oxoid, Basingstoke, England) impregnated with 15 μg of each compound were placed on inoculated MH agar plates. A blank disk with dimethylsulfoxide (DMSO) was used as a negative control. MH inoculated plates were incubated for 18-20 h at 37 degrees C. At the end of incubation, the inhibition halos where measured. The MIC was used to determine the antibacterial activity of each compound, in accordance with the recommendations of the CLSI. Two-fold serial dilutions of the compounds were prepared in Mueller-Hinton Broth 2 (MHB2—Sigma-Aldrich, St. Louis, MO, USA) within the concentration range of 0.062-64 μg/mL. CTX ranging between 0.031-16 μg/mL was used as a control. Sterility and growth controls were included in each assay. Purity checks and colony counts of the inoculum suspensions were also performed in order to ensure that the final inoculum density closely approximates the intended number (5×10^5 CFU/mL). The MIC was determined as the lowest concentration of compound that inhibited growth of the bacteria. The MBC was assessed by spreading 10 μL of culture collected from wells showing no visible growth on MH agar plates. […]

[4] = tested on: C. jejuni P5/4; test: Antibacterial MIC/MBC (broth microdilution); assay type: cell-based, Campylobacter jejuni
Excerpt: as §2, §3, §4

[5] = tested on: C. jejuni 4433; test: Antibacterial MIC/MBC (broth microdilution); assay type: cell-based, Campylobacter jejuni
Excerpt: as §2, §3, §4

[6] = tested on: C. jejuni 4448; test: Antibacterial MIC/MBC (broth microdilution); assay type: cell-based, Campylobacter jejuni
Excerpt: as §2, §3, §4

[7] = tested on: Gram-negative and Gram-positive bacteria; test: Antibacterial activity, whole strain panel; assay type: cell-based; conditions: for spectrum of antibacterial activity (in words): all bacterial strains tested
Excerpt: as §2, §3, §4

[8] = Campylobacter jejuni, read-out: MBC
[9] = Campylobacter jejuni, read-out: MIC

Row | SMILES | MBC ([1]; ATCC19606, read-out: MBC) [µg/mL] | MIC ([1]; ATCC19606, read-out: MIC) [µg/mL] | MBC ([2]; ATCC27853, read-out: MBC) [µg/mL] | MIC ([2]; ATCC27853, read-out: MIC) [µg/mL] | MBC [3, 8] [µg/mL] | MIC [3, 9] [µg/mL] | MBC [4, 8] [µg/mL] | MIC [4, 9] [µg/mL] | MBC [5, 8] [µg/mL] | MIC [5, 9] [µg/mL] | MBC [6, 8] [µg/mL] | MIC [6, 9] [µg/mL] | activity against Gram-negative bacteria (in words) [7] | spectrum of antibacterial activity (in words) [7] | antibacterial activity (in words) [1] | other results
1 | C[C@H](CCC(=O)NCCNc1ccccc1)[C@H]1CC[C@H]2[C@@H]3CC[C@@H]4C[C@H](O)CC[C@]4(C)[C@H]3C[C@H](O)[C@]12C [Compound 8, (R)-4-((3R,5R,8R,9S,10S,12S,13R,14S,17R)-3,12-dihydroxy-10,13-dimethylhexadecahydro-1H-cyclopenta[a]phenanthren-17-yl)-N-(2-(phenylamino)ethyl)pentanamide] | > 64 | > 64 | > 64 | > 64 | > 64 | > 64 | > 64 | > 64 | > 64 | > 64 | > 64 | > 64 | – | – | – | –
2 | C[C@H](CCC(=O)NCCN)[C@H]1CC[C@H]2[C@@H]3CC[C@@H]4C[C@H](O)CC[C@]4(C)[C@H]3C[C@H](O)[C@]12C [Compound 1, (R)—N-(2-aminoethyl)-4-((3R,5R,8R,9S,10S,12S,13R,14S,17R)-3,12-dihydroxy-10,13-dimethylhexadecahydro-1H-cyclopenta[a]phenanthren-17-yl) pentanamida] | – | – | – | – | – | – | – | – | – | – | – | – | exhibited activities | active in every bacterial strain tested | displayed an inhibitory effect | MBC [1]: 64 µg/mL (≈ 147 µM); MIC [1]: 64 µg/mL (≈ 147 µM); antibacterial activity (in words) ([2]; P. aeruginosa ATCC 27853): active; MBC [2]: 64 µg/mL (≈ 147 µM); MIC [2]: 64 µg/mL (≈ 147 µM); MBC [3]: 64 µg/mL (≈ 147 µM); MIC [3]: 64 µg/mL (≈ 147 µM); antibacterial activity (in words) [3]: showed antimicrobial activity; MBC [4]: 32 µg/mL (≈ 73.6 µM); MIC [4]: 32 µg/mL (≈ 73.6 µM); antibacterial activity (in words) [4]: active; MBC [5]: 64 µg/mL (≈ 147 µM); MIC [5]: 64 µg/mL (≈ 147 µM); antibacterial activity (in words) [5]: showed antimicrobial activity; MBC [6]: 64 µg/mL (≈ 147 µM); MIC [6]: 64 µg/mL (≈ 147 µM); antibacterial activity (in words) [6]: showed antimicrobial activity
3 | C[C@H](CCC(=O)N1CCNCC1)[C@H]1CC[C@H]2[C@@H]3CC[C@@H]4C[C@H](O)CC[C@]4(C)[C@H]3C[C@H](O)[C@]12C [Compound 9, (R)-4-((3R,5R,8R,9S,10S,12S,13R,14S,17R)-3,12-dihydroxy-10,13-dimethylhexadecahydro-1H-cyclopenta[a]phenanthren-17-yl)-1-(piperazin-1-yl) pentan-1-one] | 64 (≈ 139 µM) | 64 (≈ 139 µM) | > 64 | > 64 | > 64 | > 64 | > 64 | > 64 | > 64 | > 64 | > 64 | > 64 | exhibited activities | broad spectrum of activity | displayed an inhibitory effect | –
4 | C[C@H](CCC(=O)N1CCOCC1)[C@H]1CC[C@H]2[C@@H]3CC[C@@H]4C[C@H](O)CC[C@]4(C)[C@H]3C[C@H](O)[C@]12C [Compound 3, (R)-4-((3R,5R,8R,9S,10S,12S,13R,14S,17R)-3,12-dihydroxy-10,13-dimethylhexadecahydro-1H-cyclopenta[a]phenanthren-17-yl)-1-morpholinopentan-1-one] | > 64 | > 64 | > 64 | > 64 | > 64 | > 64 | > 64 | > 64 | > 64 | > 64 | > 64 | > 64 | – | – | – | –
